Here are results for 25 compounds from PubChem BioAssay AID256 (DTP/NCI, 2004).

This assay concerns CD2F1 mice, L1210 leukemia ip, survival T/C. Put plainly: NCI In Vivo Anticancer Drug Screen. Data for tumor model L1210 Leukemia (intraperitoneal) in CD2F1 (CDF1) mice. The conditions noted are these: endpoint: mean survival time, higher = longer survival. An outline of the steps:
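Implant tumor; dose compound or vehicle; measure endpoint in both groups; report treated divided by control.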

The mark [1] stands for this setting: dose: 50.0 mg/kg/injection, schedule: Q01DX009 (ip), vehicle: saline with Tween-80.
The mark [2] stands for this setting: dose: 100.0 mg/kg/injection, schedule: Q01DX001 (ip), vehicle: saline with Tween-80.
The mark [3] stands for this setting: dose: 200.0 mg/kg/injection, schedule: Q01DX001 (ip), vehicle: saline with Tween-80.
The mark [4] stands for this setting: dose: 25.0 mg/kg/injection, schedule: Q04DX003 (ip), vehicle: saline with Tween-80.
[5] abbreviates: dose: 12.5 mg/kg/injection, schedule: Q01DX009 (ip), vehicle: other.
The mark [6] stands for this setting: dose: 25.0 mg/kg/injection, schedule: Q01DX009 (ip), vehicle: other.
[7] abbreviates: dose: 50.0 mg/kg/injection, schedule: Q01DX009 (ip), vehicle: other.
Setting [8] is: dose: 100.0 mg/kg/injection, schedule: Q01DX009 (ip), vehicle: other.
Setting [9] is: dose: 200.0 mg/kg/injection, schedule: Q01DX009 (ip), vehicle: other.
Where [10] appears, read: dose: 100.0 mg/kg/injection, schedule: Q04DX003 (ip), vehicle: saline with Tween-80.
[11] abbreviates: dose: 200.0 mg/kg/injection, schedule: Q04DX003 (ip), vehicle: saline with Tween-80.
Where [12] appears, read: dose: 400.0 mg/kg/injection, schedule: Q04DX003 (ip), vehicle: saline with Tween-80.
[13] abbreviates: dose: 25.0 mg/kg/injection, schedule: Q01DX009 (ip), vehicle: saline with Tween-80.
[14] abbreviates: dose: 100.0 mg/kg/injection, schedule: Q01DX009 (ip), vehicle: saline with Tween-80.
Setting [15] is: dose: 100.0 mg/kg/injection, schedule: Q01DX001 (ip), vehicle: saline.
[16] abbreviates: dose: 200.0 mg/kg/injection, schedule: Q01DX001 (ip), vehicle: saline.
Where [17] appears, read: dose: 400.0 mg/kg/injection, schedule: Q01DX001 (ip), vehicle: saline.
Setting [18] is: dose: 400.0 mg/kg/injection, schedule: Q01DX001 (ip), vehicle: saline with Tween-80.
Where [19] appears, read: dose: 200.0 mg/kg/injection, schedule: Q01DX009 (ip), vehicle: saline with Tween-80.
Where [20] appears, read: dose: 400.0 mg/kg/injection, schedule: Q01DX009 (ip), vehicle: saline with Tween-80.

Values joined by “and” are separate entries in the source; they are usually repeats but may differ in a detail not shown here. Equal entries are not always repeated. Inconclusive results and toxic doses are left out.

On to `CN(C=O)c1cc2c3c(c1)CCCN3CCC2`, for which the T/C runs as follows: under setting [1], 100 % of control; under setting [2], 105 % of control; under setting [3], 104 % of control.
Turning to `CC([NH-])CC(C)[NH-].[Cl][Pt+2][Cl]` (stereo not drawn), the T/C reads like this: (dose: 3.12 mg/kg/injection, schedule: Q04DX003 (ip), vehicle: saline with Tween-80) 122 % of control; (dose: 6.25 mg/kg/injection, schedule: Q04DX003 (ip), vehicle: saline with Tween-80) 162 % of control and 168 % of control; under setting [4], 92 % of control.
Take `COc1ccc2ccccc2c1C1/C(=N/O)CCc2ccccc21` (stereo not drawn): the T/C by setting is: under setting [5], 98 % of control; under setting [6], 94 % of control; under setting [7], 98 % of control; under setting [8], 98 % of control; under setting [9], 96 % of control.
`Nc1nc2ccc(CN(C=O)c3ccc(C(=O)NC(CCC(=O)O)C(=O)O)cc3)cc2c(=O)[nH]1` (stereo not drawn): the T/C runs as follows: (dose: 6.25 mg/kg/injection, schedule: Q01DX009 (ip), vehicle: water) 94 % of control; (dose: 12.5 mg/kg/injection, schedule: Q01DX009 (ip), vehicle: water) 102 % of control; (dose: 25.0 mg/kg/injection, schedule: Q01DX009 (ip), vehicle: water) 105 % of control; (dose: 50.0 mg/kg/injection, schedule: Q01DX009 (ip), vehicle: water) 107 % of control; (dose: 100.0 mg/kg/injection, schedule: Q01DX009 (ip), vehicle: water) 119 % of control; (dose: 200.0 mg/kg/injection, schedule: Q01DX009 (ip), vehicle: water) 107 % of control. For the same compound, under “dose: 400.0 mg/kg/injection, schedule: Q01DX009 (ip), vehicle: water”, the T/C is 100 % of control.
Consider `OCC(O)C1OC(SCc2ccccc2)C(O)C(O)C1O` (stereo not drawn), for which the T/C by setting is: under setting [10], 91 % of control; under setting [11], 100 % of control; under setting [12], 107 % of control.
On to `O=[N+]([O-])c1cccc(/C=C/c2ccccn2)c1`, for which the T/C is 98 % of control (dose: 50.0 mg/kg/injection, schedule: Q01DX009 (ip), vehicle: Klucel (hydroxypropylcellulose) (HPC)); 98 % of control (dose: 100.0 mg/kg/injection, schedule: Q01DX009 (ip), vehicle: Klucel (hydroxypropylcellulose) (HPC)); 90 % of control (dose: 200.0 mg/kg/injection, schedule: Q01DX009 (ip), vehicle: Klucel (hydroxypropylcellulose) (HPC)).
As to `CNC(=O)OC(C)CC(O)(C(F)(F)F)C(F)(F)F` (stereo not drawn), the T/C was 97 % of control under setting [13]; 96 % of control under setting [4]; 101 % of control under setting [1]; 98 % of control (dose: 50.0 mg/kg/injection, schedule: Q04DX003 (ip), vehicle: saline with Tween-80); 98 % of control under setting [14]; 96 % of control (dose: 100.0 mg/kg/injection, schedule: Q04DX003 (ip), vehicle: Klucel (hydroxypropylcellulose) (HPC)). In addition, the T/C under setting [10] is 98 % of control.
As for `N#CCOc1cccc([N+](=O)[O-])c1`, the T/C is 103 % of control under setting [10] and 96 % of control under setting [11].
Regarding `O/N=C/C1CCCC[N-]1.[Co+3].[O-]/N=C/C1CCCC[N-]1.[O-]/N=C/C1CCCC[N-]1.[O-][Cl+3]([O-])([O-])O` (stereo not drawn), the T/C was 108 % of control under setting [15], 96 % of control under setting [16] and 96 % of control under setting [17].
As for `CCCCCOC(=S)S`, the T/C runs as follows: (dose: 9.37 mg/kg/injection, schedule: Q04DX003 (ip), vehicle: Klucel (hydroxypropylcellulose) (HPC)) 86 % of control; (dose: 37.5 mg/kg/injection, schedule: Q04DX003 (ip), vehicle: Klucel (hydroxypropylcellulose) (HPC)) 86 % of control.
In the case of `COC(=O)C(CCl)NC(N)=O` (stereo not drawn), the T/C runs as follows: under setting [15], 104 % of control; under setting [16], 101 % of control; under setting [17], 104 % of control.
For `OC(Cc1cnc2ccccc2n1)(C(F)(F)F)C(F)(F)F`, the T/C is 94 % of control under setting [10], 98 % of control under setting [11] and 103 % of control under setting [12].
In the case of `Nc1nc2c(c(=O)[nH]1)N(C(=O)NCCCl)C(CNc1ccc(C(=O)NC(CCC(=O)O)C(=O)O)cc1)CN2` (stereo not drawn), the T/C is 94 % of control (dose: 100.0 mg/kg/injection, schedule: Q01DX001 (ip), vehicle: sodium bicarbonate); 100 % of control (dose: 200.0 mg/kg/injection, schedule: Q01DX001 (ip), vehicle: sodium bicarbonate); 97 % of control (dose: 400.0 mg/kg/injection, schedule: Q01DX001 (ip), vehicle: sodium bicarbonate).
On to `C=C(Br)CC1CCCCC1=O` (stereo not drawn), for which the T/C by setting is: under setting [2], 94 % of control; (dose: 100.0 mg/kg/injection, schedule: Q01DX009 (ip), vehicle: saline sonified) 98 % of control; under setting [3], 93 % of control; (dose: 200.0 mg/kg/injection, schedule: Q01DX009 (ip), vehicle: saline sonified) 94 % of control; under setting [18], 95 % of control; (dose: 400.0 mg/kg/injection, schedule: Q01DX009 (ip), vehicle: saline sonified) 100 % of control.
On to `CCN(CC)C1=C(C)S(=O)(=O)C1c1ccc(C)cc1` (stereo not drawn), for which the T/C runs as follows: under setting [1], 102 % of control; under setting [15], 97 % of control; under setting [14], 98 % of control; (dose: 100.0 mg/kg/injection, schedule: Q04DX003 (ip), vehicle: saline) 103 % of control; under setting [16], 97 % of control; under setting [19], 98 % of control. The T/C reads like this: (dose: 200.0 mg/kg/injection, schedule: Q04DX003 (ip), vehicle: saline) 109 % of control; under setting [17], 97 % of control; (dose: 400.0 mg/kg/injection, schedule: Q04DX003 (ip), vehicle: saline) 100 % of control.
Regarding `CCCCCCCCC1SC1CCCCCCCC(=O)NCCOC(=O)CCCCCCCC1SC1CCCCCCCC` (stereo not drawn), the T/C by setting is: under setting [14], 92 % of control; under setting [19], 95 % of control; under setting [20], 93 % of control.
The like results for `CN(CC#CCOc1ccc(Br)cc1)c1ccccc1` were, in that order, 103 % of control, 100 % of control and 97 % of control.
Regarding `O=CO.[Mn]`, the T/C reads like this: (dose: 5.0 mg/kg/injection, schedule: Q01DX001 (ip), vehicle: saline) 96 % of control; (dose: 10.0 mg/kg/injection, schedule: Q01DX001 (ip), vehicle: saline) 101 % of control; (dose: 20.0 mg/kg/injection, schedule: Q01DX001 (ip), vehicle: saline) 96 % of control; (dose: 40.0 mg/kg/injection, schedule: Q01DX001 (ip), vehicle: saline) 96 % of control; (dose: 80.0 mg/kg/injection, schedule: Q01DX001 (ip), vehicle: saline) 98 % of control.
On to `CSc1ncc(C=O)c(N)n1`, for which the T/C by setting is: under setting [2], 96 % of control; under setting [3], 97 % of control; under setting [18], 95 % of control.
Consider `NCC1CCCCO1` (stereo not drawn), for which the T/C reads like this: (dose: 50.0 mg/kg/injection, schedule: Q01DX001 (ip), vehicle: saline) 90 % of control; under setting [15], 98 % of control; under setting [16], 93 % of control.
As to `COc1ccc(C(=O)/C=C/c2cccc3ccccc23)cc1`, the T/C was 91 % of control under setting [13], 93 % of control under setting [1] and 91 % of control under setting [14].
On to `C/C(=N\NC(=O)c1ccccc1)c1ccccc1`, for which the T/C is, setting by setting: under setting [14], 98 % of control; under setting [19], 106 % of control; under setting [20], 102 % of control.
For the compound `C#CC(=O)c1ccccc1`, the T/C (dose: 9.4 mg/kg/injection, schedule: Q04DX003 (ip), vehicle: saline) was 93 % of control.
Take `CC(C)(C)C1=CC(=O)C(Cl)(C(C)(C)C)C(Cl)C1=O` (stereo not drawn): the T/C was 97 % of control (dose: 25.0 mg/kg/injection, schedule: Q01DX001 (ip), vehicle: saline with Tween-80) and 93 % of control (dose: 50.0 mg/kg/injection, schedule: Q01DX001 (ip), vehicle: saline with Tween-80).
As to `COc1ccccc1NC(=O)NC1C(OC(C)=O)OC(COC(C)=O)C(OC(C)=O)C1OC(C)=O` (stereo not drawn), the T/C was 93 % of control under setting [5]; 94 % of control under setting [6]; 98 % of control under setting [7]; 94 % of control under setting [8]; 93 % of control under setting [9].
